Results as given in patent US20260306491A1, “EGFR INHIBITOR FOR TREATING CANCERS COMPRISING ATYPICAL EGFR MUTATIONS” (ORIC Pharmaceuticals, Inc., priority 2023, published 2026).
“And” between values parts separate entries of the source, which are not always exact repeats. Equal entries are not always repeated.

Legend:
[1] = test system: HER2 exon 20 insertion mutated NSCLC; assay: Clinical study: duration of treatment and antitumor response, HER2 exon 20 insertion mutated NSCLC (Example 10); assay type: in vivo, human
Method: A clinical study was conducted using Compound I in human subjects having non-small cell lung cancer (NSCLC) comprising EGFR exon 20 insertion mutations, HER2 exon 20 insertion mutations, or HER2 amplification or overexpression. A total of 50 human subjects having non-small cell lung cancer comprising one or more EGFR exon 20 insertion mutations, HER2 exon 20 insertion mutations, or HER2 amplification or overexpression were enrolled in the study as of Jul. 31, 2023 with data collected as of Sep. 26, 2023. The subjects were enrolled into one of ten dosing cohorts that were each orally administered Compound I in the form of a hemifumarate salt as shown in Table 13 (QD=once per day; BID=twice per day).
Duration of treatment and antitumor responses achieved in evaluable subjects with HER2 exon 20 insertion mutate NSCLC (dose level greater than or equal to 45 mg TDD and at least one post-baseline tumor assessment) who were administered Compound I in the form of a hemifumarate salt are set forth in Tables 21 and 22, respectively.

[2] = test system: Ba/F3 cells expressing EGFR_G719S; assay: Cell viability (CellTiter-Glo); assay type: cell-based; settings: Mus musculus, BaF3; 72 hours; average ± standard deviation; read-out: Absolute EC50 (50% growth)
Method: (§1) A cell-based assay was used to evaluate the potency of Compound I on cells where the growth of the cells is either driven by EGFR wild type (WT) or cells comprising atypical mutant EGFR proteins. Cell viability was assessed following treatment with compounds and the assay developed with CellTiterGlo (CTG) reagent that measures ATP levels in cells. Compound I was dissolved in DMSO to generate a 10 mM stock solution. Dosing solutions were prepared by serial dilution in DMSO followed by dilution in complete media to result in a 0.4% DMSO in the assay. Ba/F3 cells expressing EGFR mutants EGFR_G719S, EGFR_G724S, EGFR_L718Q, EGFR_L718V, EGFR_L858R/1L718Q, EGFR_L858R/1L718V, EGFR_del19/L792K. EGFR_del19/G796S were generated following co-transfection of the EGFR mutant of interest with PhiC31 integrase. Two days following transfection, the media was changed and replaced with media lacking mIL3 with the addition of human EGF (hEGF) as well as puromycin to select stable cell lines. After the cell lines were established genomic DNA (gDNA) was extracted to confirm the sequence of the construct of interest. The culture Media for Ba/F3 EGFR mutants was RPMI+10% FBS+2 mM L-Glut±10 ng/ml hEGF+0.5 pig/ml puromycin. The following reagents were used to conduct the assays: RPMI1640 with phenol red (Corning, Cat #: 15-040-CV); Fetal Bovine Serum (FBS) (Omega Scientific, Cat #: FR-11); Human Epidermal Growth Factor (hEGF) (Cell Signaling Cat #8916SC); L-Glutamine (Corning, Cat #: 25-005-CI); Puromycin (Gibco, Cat #A11138-03); assay media was the same as culture medium; CellTiter-Glo® 2.0 Cell Viability Assay (Promega, Cat #G9243), DMSO (Sigma, Cat #: D2660). The following equipment was used to conduct the assays: Bravo Liquid Handler (Agilent #G5523BA); and the following supplies: 96-well Non-Sterile Polypropylene V Bottom Plates (Corning, Cat #: 3363); 384-well Sterile White with Flat Clear Bottom Plates (Greiner, 781098); and PerkinElmer TopSeal-A Plus plate seal (Cat. #6050185).
(§2) Ba/F3 cell lines expressing either EGFR WT or mutant proteins were cultured in complete culture media at exponential growth phase for at least one week prior to assay. The different cell suspensions were counted and seeded into 384-well Sterile White Flat Clear Bottom Plates using a Bravo liquid handler, according to the appropriate cell number in 36 μl of media per well as follows: (a) Ba/F3-WT-EGFR: 2000 cells per well of a 384 well plate; (b) Ba/F3-G719S-EGFR: 2000 cells per well of a 384 well plate; (c) Ba/F3 G724S-EGFR: 1000 cells per well of a 384 well plate; (d) Ba/F3-L718Q-EGFR: 1000 cells per well of a 384 well plate; (e) Ba/F3-L718V-EGFR: 1000 cells per well of a 384 well plate; (f) Ba/F3-L858R/L718Q-EGFR: 1000 cells per well of a 384 well plate; (g) Ba/F3-L858R/L718V-EGFR: 1000 cells per well of a 384 well plate; (h) Ba/F3-del19/L792H-EGFR: 1000 cells per well of a 384 well plate; (i) Ba/F3-del19/G796S-EGFR: 1000 cells per well of a 384 well plate.
(§3) Compound I was solubilized in DMSO as 10 mM stock solutions. These were stored as aliquots at −80° C. and used only once after thawing. The highest concentration of Compound I in the final assay plate was 500 nM. To prepare the compound dilutions intermediate dilution plates were prepared using the Bravo liquid handler by performing 12-point ⅓-fold serial dilutions in DMSO to a final concentration of 250-fold the concentration in the final assay plate, followed by a 1/25 dilution into complete assay media. Compound dilutions in media were added to cells (final assay plate) by dispensing 4 μL into cells plated the same day in 36 μl of medium of media. Plates were placed in a 37° C., 5% CO2 incubator. Following 72 hours of incubation, plates were left to equilibrate at room temperature before the addition of 1:1 ratio of CTG 2.0 using the Bravo liquid handler. […]

[3] = test system: Ba/F3 cells expressing EGFR WT; assay: Cell viability (CellTiter-Glo); assay type: cell-based; settings: Mus musculus, BaF3; 72 hours; average ± standard deviation; read-out: Absolute EC50 (50% growth)
Method: as §1, §2, §3

[4] = test system: Ba/F3 cells expressing EGFR_del19/G796S; assay: Cell viability (CellTiter-Glo); assay type: cell-based; settings: Mus musculus, BaF3; 72 hours; average ± standard deviation; read-out: Absolute EC50 (50% growth)
Method: as §1, §2, §3

[5] = test system: EGFR exon 20 mutated NSCLC with active CNS metastases; assay: Clinical evaluation in one subject (Example 11); assay type: in vivo, human; settings: hemifumarate, 75 mg QD
Method: A subject having EGFR exon 20 mutated non-small cell lung cancer was enrolled in a clinical study relating to Compound I. The cancer in the subject had been previously treated with chemotherapy (pemetrexed/cisplatin) and amivantamab. The subject presented with four active CNS non-target lesions that were previously untreated, and for which the subject had not undergone prior surgery or radiation treatment. The subject was enrolled in a dosing cohort that received 75 mg QD of Compound I in the form of a hemifumarate salt.

C=CC(=O)Nc1cc(Nc2cc(N3OCC[C@@H]3c3cc(F)cc(F)c3)ncn2)c(OC)cc1N1CCC(N2CCN(C3CC3)CC2)CC1 [Compound I, N-[2-[4-(4-cyclopropyl-1-piperazinyl)-1-piperidinyl]-5-[[6-[(3R)-3-(3,5-difluorophenyl)-2-isoxazolidinyl]-4-pyrimidinyl]amino]-4-methoxyphenyl]-2-propenamide]
Duration of treatment ([1]; oral hemifumarate, dosing cohort 30 BID, one value per subject): 79 days and Ongoing (3×) and 54 days
Duration of treatment ([1]; oral hemifumarate, dosing cohort 45 QD, one value per subject): Ongoing
Duration of treatment ([1]; oral hemifumarate, dosing cohort 60 QD, one value per subject): 28 days
Duration of treatment ([1]; oral hemifumarate, dosing cohort 75 QD, one value per subject): 179 days and 47 days
Duration of treatment ([1]; oral hemifumarate, dosing cohort 90 QD, one value per subject): Ongoing
Best percent change in the sum of target lesions from baseline ([1]; oral hemifumarate, ≥45 mg TDD, one value per subject (subjects 1 to 13)): 0% (2×) and −3% and −19% and −31% and −33% and −34% and −55% and −100% and 31% and 11% and 9% and 5%
Duration of treatment ([1]; po): 2 days
EC50 [2]: 0.7 ± 0.1 nM
EC50 [3]: 6.6 ± 4.3 nM
EC50 [4]: 1.1 ± 0.7 nM
Reduction of all target and non-target lesions ([5]; after cycle 1 (28 days)): 60%
Reduction of all 4 CNS lesions ([5]; after cycle 1, confirmed after cycle 2): 100%
Duration of dosing at data cutoff ([5]; continuing): on dosing cycle 9
EGFR-related adverse events ([5]; data cutoff Sep. 26, 2023): Grade 2 mucositis and Grade 2 paronychia
Reduction of all target and non-target lesions ([5]; end of cycle 2): 100%
Tumor response ([5]; end of cycle 2, confirmed): complete response
